Laboratory results: ChEMBL document CHEMBL5512688 (J Med Chem, 2024)

What was measured:
[1] = system: LoVo; experiment: Antiproliferative activity against human LoVo cells assessed as inhibition of cell growth incubated for 72 hrs by CCK-8 method; format: functional, cell-based
[2] = target: T1, Cyclin-G-associated kinase (Homo sapiens) (UniProt O14976); experiment: Inhibition of GAK (unknown origin) at 1 uM relative to control
T1 sequence (whole entry): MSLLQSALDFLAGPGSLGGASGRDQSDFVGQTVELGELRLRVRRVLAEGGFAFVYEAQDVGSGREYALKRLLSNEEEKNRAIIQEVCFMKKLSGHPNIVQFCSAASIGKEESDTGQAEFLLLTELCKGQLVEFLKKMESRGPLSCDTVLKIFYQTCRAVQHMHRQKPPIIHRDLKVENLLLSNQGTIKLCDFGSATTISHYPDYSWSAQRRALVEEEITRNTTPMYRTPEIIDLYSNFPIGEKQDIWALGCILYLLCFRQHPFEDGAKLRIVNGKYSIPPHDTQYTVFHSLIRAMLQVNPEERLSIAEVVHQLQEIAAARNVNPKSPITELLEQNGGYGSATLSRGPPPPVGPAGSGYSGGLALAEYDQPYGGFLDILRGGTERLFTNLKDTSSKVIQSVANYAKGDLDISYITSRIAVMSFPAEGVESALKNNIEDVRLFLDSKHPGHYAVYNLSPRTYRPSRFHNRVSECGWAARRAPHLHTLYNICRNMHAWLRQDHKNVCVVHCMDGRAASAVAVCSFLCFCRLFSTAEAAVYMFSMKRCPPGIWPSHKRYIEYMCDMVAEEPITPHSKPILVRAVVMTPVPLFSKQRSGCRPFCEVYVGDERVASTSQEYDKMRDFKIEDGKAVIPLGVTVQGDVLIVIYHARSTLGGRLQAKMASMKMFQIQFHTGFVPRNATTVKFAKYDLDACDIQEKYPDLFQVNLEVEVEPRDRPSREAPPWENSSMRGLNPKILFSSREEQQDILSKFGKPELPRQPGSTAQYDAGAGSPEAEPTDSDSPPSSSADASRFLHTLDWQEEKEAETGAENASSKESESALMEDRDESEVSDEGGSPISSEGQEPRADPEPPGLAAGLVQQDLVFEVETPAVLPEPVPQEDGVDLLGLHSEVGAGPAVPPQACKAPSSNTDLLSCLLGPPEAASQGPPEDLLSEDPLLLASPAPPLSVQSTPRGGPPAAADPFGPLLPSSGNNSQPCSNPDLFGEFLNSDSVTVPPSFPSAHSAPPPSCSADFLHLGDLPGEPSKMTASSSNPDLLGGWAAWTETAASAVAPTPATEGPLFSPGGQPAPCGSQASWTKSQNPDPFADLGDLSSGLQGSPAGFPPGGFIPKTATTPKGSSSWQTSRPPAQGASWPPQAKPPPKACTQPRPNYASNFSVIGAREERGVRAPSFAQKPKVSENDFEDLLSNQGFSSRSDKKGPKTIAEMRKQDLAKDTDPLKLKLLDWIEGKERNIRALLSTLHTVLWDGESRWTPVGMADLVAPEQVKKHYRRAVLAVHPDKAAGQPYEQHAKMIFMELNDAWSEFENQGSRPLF

[3] = Metabolic stability in mouse liver microsome assessed as parent compound remaining measured at 60 mins by LCMS/MS analysis; format: ADME; details: liver microsomes, read-out: Stability
[4] = system: A-427; experiment: Induction of apoptosis in human A-427 cells assessed as necrotic cells at 400 nM measured for 48 hrs by Annexin V/PI double staining based flow cytometry analysis (reference value: 0.098%); format: functional
[5] = system: A-427; experiment: Induction of apoptosis in human A-427 cells assessed as late apoptotic cells at 200 nM measured for 48 hrs by Annexin V/PI double staining based flow cytometry analysis (reference value: 0.21%); format: functional
[6] = system: A-427; experiment: Induction of apoptosis in human A-427 cells assessed as viable cells at 400 nM measured for 48 hrs by Annexin V/PI double staining based flow cytometry analysis (reference value: 97.7%); format: functional; details: read-out: Activity
[7] = target: T2, Wee1-like protein kinase (Homo sapiens, UniProt P30291); experiment: Inhibition of Wee1 (unknown origin) at 1 uM relative to control
Target sequence in this assay (P30291 whole entry, looked up): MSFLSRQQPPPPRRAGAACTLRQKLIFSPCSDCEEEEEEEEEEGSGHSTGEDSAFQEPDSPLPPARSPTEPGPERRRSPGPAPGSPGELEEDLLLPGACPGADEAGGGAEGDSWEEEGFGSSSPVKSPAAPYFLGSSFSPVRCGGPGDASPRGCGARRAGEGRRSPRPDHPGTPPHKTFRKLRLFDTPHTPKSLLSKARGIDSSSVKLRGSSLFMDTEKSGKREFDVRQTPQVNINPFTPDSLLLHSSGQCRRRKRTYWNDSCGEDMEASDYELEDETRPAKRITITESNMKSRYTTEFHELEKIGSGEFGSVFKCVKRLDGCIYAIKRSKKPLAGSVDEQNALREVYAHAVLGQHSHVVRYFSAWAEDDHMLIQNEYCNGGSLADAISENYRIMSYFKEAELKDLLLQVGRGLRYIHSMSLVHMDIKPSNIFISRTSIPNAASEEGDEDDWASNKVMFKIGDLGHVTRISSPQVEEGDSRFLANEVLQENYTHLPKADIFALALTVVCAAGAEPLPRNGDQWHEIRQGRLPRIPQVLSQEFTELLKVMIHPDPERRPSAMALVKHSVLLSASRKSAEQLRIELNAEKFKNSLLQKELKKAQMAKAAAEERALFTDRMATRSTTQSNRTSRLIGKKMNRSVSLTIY

[8] = system: LoVo; experiment: Antitumor activity against human LoVo cells xenografted in female BALB/c nude mouse assessed as tumor growth inhibition at 60 mg/kg, IG administered once daily for 27 days; format: functional; details: po, 648 h, time 27 day, read-out: TGI
[9] = system: A-427; experiment: Induction of apoptosis in human A-427 cells assessed as late apoptotic cells at 400 nM measured for 48 hrs by Annexin V/PI double staining based flow cytometry analysis (reference value: 0.21%); format: functional
[10] = system: A-427; experiment: Induction of cell cycle arrest in human A-427 cells assessed as accumulation of cells at G0/G1 phase at 400 nM measured for 48 hrs by flow cytometry analysis (reference value: 49.5%); format: functional
[11] = Volume of distribution in ICR mouse at 1 mg/kg, iv measured upto 24 hrs by LC-MS/MS analysis; format: ADME, organism-based; details: in vivo
[12] = system: A-427; experiment: Induction of cell cycle arrest in human A-427 cells assessed as accumulation of cells at G0/G1 phase at 50 nM measured for 48 hrs by flow cytometry analysis (reference value: 49.5%); format: functional
[13] = target: T2, Wee1-like protein kinase; experiment: Inhibition of human Wee1 (215 to 647 residues) using polyornithine/tyrosine (4:1) as substrate incubated for 5 mins in presence of ATP by micro beta plate reader analysis
Target sequence in this assay (P30291 whole entry): as the sequence (P30291 whole entry, looked up) above

[14] = system: A-427; experiment: Induction of cell cycle arrest in human A-427 cells assessed as accumulation of cells at G2/M phase at 100 nM measured for 48 hrs by flow cytometry analysis (reference value: 10.9 %); format: functional
[15] = system: A-427; experiment: Induction of apoptosis in human A-427 cells assessed as viable cells at 800 nM measured for 48 hrs by Annexin V/PI double staining based flow cytometry analysis (reference value: 97.7%); format: functional; details: read-out: Activity
[16] = system: A-427; experiment: Induction of cell cycle arrest in human A-427 cells assessed as accumulation of cells at S phase at 100 nM measured for 48 hrs by flow cytometry analysis (reference value: 4 %); format: functional
[17] = system: A-427; experiment: Induction of cell cycle arrest in human A-427 cells assessed as accumulation of cells at G2/M phase at 50 nM measured for 48 hrs by flow cytometry analysis (reference value: 10.9 %); format: functional
[18] = system: A-427; experiment: Induction of apoptosis in human A-427 cells assessed as viable cells at 200 nM measured for 48 hrs by Annexin V/PI double staining based flow cytometry analysis (reference value: 97.7%); format: functional; details: read-out: Activity
[19] = system: A-427; experiment: Induction of apoptosis in human A-427 cells assessed as necrotic cells at 800 nM measured for 48 hrs by Annexin V/PI double staining based flow cytometry analysis (reference value: 0.098%); format: functional
[20] = Bioavailability in ICR mouse at 60 mg/kg, IG measured upto 24 hrs by LC-MS/MS analysis; format: ADME, organism-based; details: in vivo, po
[21] = target: T2, Wee1-like protein kinase; experiment: Inhibition of Wee1 in human U2OS cells assessed as reduction in CDK1 phosphorylation measured for 1 hr by Western blot analysis; format: cell-based
Target sequence in this assay (P30291 whole entry): as the sequence (P30291 whole entry, looked up) above

[22] = system: A-427; experiment: Induction of apoptosis in human A-427 cells assessed as late apoptotic cells at 800 nM measured for 48 hrs by Annexin V/PI double staining based flow cytometry analysis (reference value: 0.21%); format: functional

Compound: C=CCn1c(=O)c2cnc(Nc3ccc(N4CCN(C)CC4)cc3)nc2n1-c1cccc(-c2cnccn2)n1
- IC50 [1]: 82 nM
- inhibition [2]: > 90%
- remaining at 1 h [3]: 33.9%
- Activity [4]: 2.33%
- Activity [5]: 25.6%
- viability at 0.4 µM [6]: 58.3%
- inhibition [7]: 111%
- inhibition in vivo at 60 mg/kg [8]: 88%
- Activity [9]: 29.2%
- Activity [10]: 31.3%
- Vd [11]: 11.3 L/kg
- Activity [12]: 40.9%
- IC50 [13]: 2.1 nM
- Activity [14]: 7.09%
- viability at 0.8 µM [15]: 50.9%
- Activity [16]: 48.5%
- Activity [17]: 6.57%
- viability at 0.2 µM [18]: 60.6%
- Activity [19]: 3.64%
- bioavailability [20]: 61.5%
- IC50 [21]: 430 nM
- Activity [22]: 35.4%
